Reference: patent US9828333B2, “Compounds for the treatment of influenza” (CHRISTIAN-ALBRECHTS-UNIVERSITAT ZU KIEL, priority 2011, dated 2017)
Read-outs that look alike come from different tables or passages of the source.

Key:
[1] = tested on: influenza A virus A/Jena/5258/2009 (pandemic H1N1; oseltamivir-sensitive); format: cell-based
in vitro = in vitro ADME; settings: human plasma instead of the 4% albumin solution; read-out: Protein binding (converted)
Experimental: . Therefor, human plasma was used instead of the 4% albumin solution. […]. The values are as expected somewhat higher than the values obtained with the 4% albumin solution and are to be traced back to the presence of other plasma proteins (e.g. α1-acidic glycoprotein) in addition to albumin.
(§1) The plasma protein binding was carried out in three different concentrations (10, 25, and 50 μM). A 4% albumin solution was used as protein solutions. In each case, 50 μl of a 10-fold concentrated substance solution were pipetted in 450 μl of the protein solution. The incubation was carried out for 15 minutes in the shaking water bath at 37° C. Subsequently, the samples were transferred in ultra-filtration units (Vivaspin 500, 10 kDa cut-off) and centrifuged for 15 min at 10.000 rpm. The filtrate was analyzed by HPLC. In addition, a control was run for each concentration, which was not treated with protein and not centrifuged.
. Therefor, instead of the 4% albumin solution, human plasma was used. […]. As anticipated, the values are somewhat higher than the values obtained with the 4% albumin solution and are due to the presence of other plasma proteins (e.g., α1-acidic glycoprotein) besides the albumin.

[2] = format: in vitro ADME, murine; settings: 37° C., up to 120 min
Experimental: (§2) In addition, the substances were tested in human and murine plasma. Therefor, 630 μl of the plasma as mixed with 70 μl of a 2 mM stock solution of each compound in 10 mM phosphate buffer pH 7.4. The incubations were performed in a shaking water bath at 37° C. The incubation was terminated at the times 15, 30, 45, 60, 90 and 120 min by removal of 100 μl sample and addition of 100 μl acetonitrile. The samples were centrifuged (12,000 rpm/10 min) and the supernatant surveyed by HPLC.
(§3) The stability studies were analyzed using the following HPLC method.

[3] = format: in vitro ADME, human; settings: 37° C., up to 120 min
Experimental: as §2, §3

[4] = tested on: influenza A virus A/Jena/5258/2009; experiment: microbe, parasite or virus in culture; format: cell-based, influenza A virus H1N1; settings: Influenza A virus, MDCK, read-out: 50% inhibitory concentration, A/Jena/5258/2009
[5] = format: physicochemical; settings: 0.2 mg/ml, pH 7.4 at RT and 4° C. or Aqua bidest at 4° C., 14 days
Experimental: The storage stability in solution was determined at a concentration of 0.2 mg/ml. Therefor, a compound was dissolved in 50 mM KH2PO4 buffer, pH 7.4 respectively Aqua bidest and stored at RT (pH 7.4) or in a refrigerator at 4° C. (pH 7.4 respectively Aqua bidest) over the test period. The concentration of the active form was determined after 12 h, 1 d, 2 d, 4 d, 7 d and 14 d by HPLC.
Stability Studies for the Amidine Effective Form (3) and Guanidine Effective Form (9) Over 2 Weeks Studies at pH 7.4:
The storage stability in dissolved form was determined at a concentration of 0.2 mg/ml. For this purpose, the compound was dissolved in 50 mM KH2PO4 buffer pH 7.4 or in aqua bidest and stored for the investigation period at RT (pH 7.4) or in a refrigerator at 4° C. (pH 7.4 or aqua bidest). The concentration of the effective form was determined by HPLC after 12 h, 1 d, 2 d, 4 d, 7 d and 14 d.

albumin = albumin (Homo sapiens, UniProt P02768); format: in vitro ADME; settings: 4% albumin solution, average of three concentrations (10, 25, 50 μM)
Experimental: 3. Determination of Protein Binding of the Amidine Effective Form (3) as Well as of Prodrugs Thereof (2, 4) and of the Guanidine Effective Form (9) as Well as of Prodrugs Thereof (6, 10)
as §1

[6] = tested on: influenza A virus A/342/2009; experiment: microbe, parasite or virus in culture; format: cell-based, influenza A virus H1N1; settings: for IC50: read-out: 50% inhibitory concentration, A/342/2009
in vivo = settings: rat; for Plasma level of derivative 9 (Conc.): intravenous administration of derivative 9, 10 mg/kg
Experimental: Sprague Dawley (SD) rats were supplied for habitation 10 days before the start of the experiment, weighing ˜300-350 g and kept in an air conditioned room with a constant temperature of 20° C. and a humidity of 50%. In this room there was a day-night rhythm of twelve hours. The dark phase began daily at 18 o'clock and turned over to the light phase at 6 clock. The rats were kept over the acclimatization period in standard cages of the size 3 (length: 42 cm, width 26 cm, height: 15 cm) and transferred three days before commencement of an experiment into a special experimental room, placed in the identical environmental conditions. They received a maintenance diet (maintenance diet for rats and mice; No. 1320; Altromin) and tap water ad libitum.
A catheter was implanted in the vein as well as in the arteria femoralis of rats receiving an i.v. administration. Rats receiving only oral administration of substances received a […] catheter only.
The catheterized animals were kept after surgery for a day in the experimental room and individually in their experimental cages. The application of the test compounds was carried out on the second day after the operation. On the experimental day, the rats were weighed one hour prior to the test and the arterial catheter was flushed with 300 μl of heparin solution. Subsequently, the i.v. or oral administration of the compounds was carried out.
The oral administrations were performed as a suspension or solution made with gum arabic (10% w/v) by gavage.
The oral administrations were made as suspension or solution with gum arabic (10% w/v) by gavage.
After i.v. administration, plasma samples were taken at 5, 10, 20, 45, 90, 150, 240 and 360 min, respectively after oral administration after 30, 60, 90, 120, 180, 240 and 360 min. To this, in each case 300 μl of whole blood were taken using an insulin syringe and transferred into EDTA-coated Microvettes CB 300 (Sarstedt, Nümbrecht). After each withdrawal it was rinsed with 100 μl 0.9% saline or every 60 min with heparin solution (250 IU/ml). The blood sample was shaken briefly and put until centrifugation (4° C.; 14000 U/min; 10 min) on ice. Subsequently, the samples were frozen at −80° C.
The plasma samples were processed and analyzed by HPLC. Therefor, the plasma samples were thawed at room temperature. In each case, 80 μl methanol (+0.2% TFA) were prepared and subsequently 80 μl of the plasma samples were pipetted into. The samples were shaken for 45 min to precipitate plasma proteins. The samples were frozen at −80° C., thawed and shaken for another 15 min. The samples were centrifuged for 15 min at 13.000 RPM and the supernatant was transferred into HPLC vials. In each case 50 μl were used for the determinations by LC/MS.
The animal studies were evaluated using the following LC/MS method.

[7] = target: neuraminidase of influenza A virus A/Jena/5258/2009 (H1N1-subtype) (Influenza A virus, UniProt A0A088CA11); experiment: biochemical
physchem = format: physicochemical; settings: aqueous buffer, thermodynamic from solid
Experimental: 2. Solubility Assays of the Compounds Tested
Determining the Solubility at Different pH Values:
Therefor, a few mg of the compounds were weighed and mixed with the volume of 50 mM KH2PO4 buffer of respective pH value for a 50 mM solution. […] Subsequently, the undissolved portion was removed by centrifugation at 10.000 rpm for 15 min, and the concentration in the supernatant was determined by HPLC.

[8] = rat, in vivo; cited from earlier work
[9] = Sprague Dawley, in vivo, iv, 10 mg/kg
[10] = Sprague Dawley, in vivo, po, 50 mg/kg

albumin, sequence (P02768 25-609): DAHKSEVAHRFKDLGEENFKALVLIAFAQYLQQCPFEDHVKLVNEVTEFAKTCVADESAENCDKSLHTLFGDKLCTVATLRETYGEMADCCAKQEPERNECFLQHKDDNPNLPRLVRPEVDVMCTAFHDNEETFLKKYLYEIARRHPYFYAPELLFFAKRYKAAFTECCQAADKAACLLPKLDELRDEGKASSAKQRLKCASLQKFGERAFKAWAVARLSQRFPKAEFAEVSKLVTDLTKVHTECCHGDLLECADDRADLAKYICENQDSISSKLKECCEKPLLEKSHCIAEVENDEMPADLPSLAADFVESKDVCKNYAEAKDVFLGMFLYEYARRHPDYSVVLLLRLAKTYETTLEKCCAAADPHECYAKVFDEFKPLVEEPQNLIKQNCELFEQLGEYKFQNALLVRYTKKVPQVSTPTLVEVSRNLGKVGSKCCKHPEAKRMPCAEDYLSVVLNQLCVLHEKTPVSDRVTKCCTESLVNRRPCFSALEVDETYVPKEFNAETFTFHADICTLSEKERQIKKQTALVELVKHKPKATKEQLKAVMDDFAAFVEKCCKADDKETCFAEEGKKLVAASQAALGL

## CCC(CC)O[C@@H]1C=C(C(=O)O)C[C@H](NC(=N)N)[C@H]1NC(C)=O [Compound 9, (3R,4R,5S)-4-acetamido-5-(N-guanidino)-3-(1-ethylpropoxy)cyclohex-1-en-1-carboxylic acid]
[1]
  90% inhibitory concentration, A/Jena/5258/2009: 0.002 (0.003) μM
  95% inhibitory concentration (values in parentheses), A/Jena/5258/2009: 0.002 (0.003) μM
In vitro
  fraction unbound: 0.914
[2]
  Stability/metabolism by plasma enzymes in murine plasma: not metabolized
[3]
  Stability/metabolism by plasma enzymes in human plasma: not metabolized
[4]
  IC50: 1.1 µM
[5]
  Storage stability in solution: stable
albumin
  Protein binding: 0.4 ± 2.8%
[6]; Influenza A virus, MDCK
  IC50: 4.1 µM
In vivo; [9]
  AUC: 4880 ng·h/mL
  Bioavailability: 100%
  MRT: 0.902 h
  half-life: 2 h
In vivo; Sprague Dawley, in vivo, po
  half-life: ~1.63 h
In vivo; time 5
  Plasma level of derivative 9 (Conc.): 23710 nM
In vivo; time 10
  Plasma level of derivative 9 (Conc.): 18300 nM
In vivo; time 20
  Plasma level of derivative 9 (Conc.): 12670 nM
In vivo; time 45
  Plasma level of derivative 9 (Conc.): 5050 nM
In vivo; time 90
  Plasma level of derivative 9 (Conc.): 1670 nM
In vivo; time 150
  Plasma level of derivative 9 (Conc.): 540 nM
In vivo; time 240
  Plasma level of derivative 9 (Conc.): 230 nM
In vivo; time 360
  Plasma level of derivative 9 (Conc.): 110 nM

## CCC(CC)O[C@@H]1C=C(C(=O)O)C[C@H](NC(C)=N)[C@H]1NC(C)=O [Compound 3]
[7]
  IC50: 0.0001 µM
[1]
  90% inhibitory concentration, A/Jena/5258/2009: 0.001 (0.011) μM
  95% inhibitory concentration (values in parentheses), A/Jena/5258/2009: 0.001 (0.011) μM
In vitro
  fraction unbound: 0.963
[4]
  IC50: 2 µM
albumin
  Protein binding: 2.2 ± 1.5%
[6]; Influenza A virus, MDCK
  IC50: 12.2 µM
[6]
  IC50: 12.1 µM
physchem
  solubility at 30 min: > 50 mM
In vivo; [9]
  Bioavailability: 100%
  MRT: 0.587 h
  half-life: 0.642 h
In vivo; Sprague Dawley, in vivo, po
  half-life: ~1.87 h
In vivo; [10]
  Bioavailability: 3.0%
  MRT: 1.867 h
  cmax: 0.7 µg/mL
In vivo; Sprague Dawley, in vivo, po, 50 mg/kg, 0 min
  Plasma level of derivative 3 (Conc.) after oral administration of the labelled derivative: 0 nM
In vivo; Sprague Dawley, in vivo, po, 50 mg/kg, 30 min
  Plasma level of derivative 3 (Conc.) after oral administration of the labelled derivative: 1630 nM
In vivo; Sprague Dawley, in vivo, po, 50 mg/kg, 60 min
  Plasma level of derivative 3 (Conc.) after oral administration of the labelled derivative: 1590 nM
In vivo; Sprague Dawley, in vivo, po, 50 mg/kg, 90 min
  Plasma level of derivative 3 (Conc.) after oral administration of the labelled derivative: 1500 nM
In vivo; Sprague Dawley, in vivo, po, 50 mg/kg, 120 min
  Plasma level of derivative 3 (Conc.) after oral administration of the labelled derivative: 1250 nM
In vivo; Sprague Dawley, in vivo, po, 50 mg/kg, 180 min
  Plasma level of derivative 3 (Conc.) after oral administration of the labelled derivative: 610 nM
In vivo; Sprague Dawley, in vivo, po, 50 mg/kg, 240 min
  Plasma level of derivative 3 (Conc.) after oral administration of the labelled derivative: 300 nM
In vivo; Sprague Dawley, in vivo, po, 50 mg/kg, 360 min
  Plasma level of derivative 3 (Conc.) after oral administration of the labelled derivative: 40 nM
In vivo; Iv, 10 mg/kg, active form 3 in plasma
  AUC: 576.8

## CCOC(=O)C1=C[C@@H](OC(CC)CC)[C@H](NC(C)=O)[C@@H](N)C1 [Oseltamivir, (3R,4R,5S)-4-acetamido-5-amino-3-(1-ethylpropoxy)cyclohex-1-en-1-carboxylic acid ethyl ester, reference compound]
[7]
  IC50: 0.0001 µM
[1]
  90% inhibitory concentration, A/Jena/5258/2009: 0.016 (0.021) μM
  95% inhibitory concentration (values in parentheses), A/Jena/5258/2009: 0.016 (0.021) μM
[4]
  IC50: 13.2 µM
[8]
  plasma half-life period: 0.733 h
[6]
  50% inhibitory concentration, A/342/2009: resistant
